Experimental data taken from patent publication US20060223811A1, “Triglycerine depressant composition” (priority 2000, published 2006).

Tested on: blood triglyceride levels
Assay: Assay of blood triglyceride levels in dogs after 11 days of oral capsule administration (GK-GPO-POD method)
Settings: serum, relative ratio against averaged pre-dosing level (100), oral capsule once daily, mean of 5 dogs
[1] = Table 9, pravastatin 2 mg/kg, pantethine 300 mg/kg
[2] = Table 11, pravastatin 2, riboflavin butyrate 6, d-α-tocopherol acetate 150, ascorbic acid 500 mg/kg
[3] = Table 12, pravastatin 2, d-α-tocopherol acetate 10, ascorbic acid 50 mg/kg

Text: Beagle dogs aged 5 months were purchased from Covance Research Products Inc. and used after 1 month of quarantine and acclimatisation breeding.
(3) Preparation Forms for Administration, Methods of Preparing the Formulation, and Method of Stocking the Formulation
The calculated amounts of pravastatin or each component of the compositions based on the body weight of each dog were weighed and filled in a gelatin capsule (½ ounce) purchased from TORPAC Inc. Capsules filled with pravastatin were stocked in a refrigerator and, those filled with combination drugs stocked at room temperature until use.
The combination drugs were filled in identical gelatin capsules.
(4) Route of Administration and Administration Period
Pravastatin or combination drug capsules were forcibly orally administered to each of the test animals once daily between 9:00 and 12:30. Animals were fasted for 2 or 3 hr prior to administration of the capsules.
The administration period was 11 successive days.
(5) Preparation of Test Samples and Procedures
Blood (10 mL) was collected from the superficial radial vein 14 and 7 days prior to capsule administration (2 and 1 weeks prior to administration) and 4, 8, and 12 days after administration of the capsule. Animals were fasted for approximately 18 hr prior to blood collection. Collected blood was placed in a test tube, left at room temperature for 0.5-1 hr, before being centrifuged (3,000 rpm for 10 min). The obtained serum was used for assays of blood triglyceride levels according to GK-GPO-POD methods.
A full automatic analyzer (Monarch, Instrumentation Laboratory, Inc.) was used for assay of triglycerides.
The averaged value in each group was obtained from 5 animals per group.

How did the “Blood Triglyceride Levels after administration, 4 days” value (“Blood Triglyceride Levels … 4 days” below) [1] turn out when CC[C@H](C)C(=O)O[C@H]1C[C@H](O)C=C2C=C[C@H](C)[C@H](CC[C@@H](O)C[C@@H](O)CC(=O)O)[C@H]21 [Pravastatin alone, (+)−(3R, 5R)-3,5-dihydroxy-7-[(1S, 2S,6S,8S,8aR)-6-hydroxy-2-methyl-8-[(S)-2-methylbutyryloxy]-1,2,6,7,8,8a-hexahydro-1-naphthyl]heptanoic acid] was run?
The value was 108.9.

What about the “Blood Triglyceride Levels after administration, 8 days” value (from here on “Blood Triglyceride Levels … 8 days”) [1] of the same molecule?
Its value is 104.0.

And the “Blood Triglyceride Levels after administration, 12 days” value (shortened to “Blood Triglyceride Levels … 12 days”) [1]?
Its value is 91.1.

And the “Blood Triglyceride Levels … 4 days” value [2]?
The value was 108.9.

What about the “Blood Triglyceride Levels … 8 days” value [2] of the same molecule?
The value was 104.0.

What about the “Blood Triglyceride Levels … 12 days” value [2] of the same molecule?
Its value is 91.1.

And the “Blood Triglyceride Levels … 4 days” value [3]?
The value was 108.9.

What about the “Blood Triglyceride Levels … 8 days” value [3] of the same molecule?
The value was 104.0.

What about the “Blood Triglyceride Levels … 12 days” value [3] of the same molecule?
The value was 91.1.
